From patent US20130253048A1, “Pharmaceutical Composition for Promoting Osteogenesis Containing Axial-equatorial Aryl-oriented Furofuran-type Lignan, and Pharmaceutical Preparation, Functional Food Product, and Health Food Product Comprising Composition” (ERINA CO., INC., priority 2010, published 2013)
Read-outs that look alike come from different tables or passages of the source.

Legend:
[1] = system: MC3T3-E1 cells; assay: Calcification of the osteoblast (ALP activity, alizarin red) in MC3T3-E1; assay type: cell-based, mouse
Experimental: MC3T3-E1 cells as the same as those used in Example 4 were used. In addition, 50 μg/ml of L-ascorbic acid and 10 mM β-Glycerophosphate (both from Sigma-Aldrich Japan Co. LLC.) were added to the basal medium employed in the Example 3 was used. Fargesin prepared in the Example 1 was added to the medium the concentration at 2 to 80 μM.
MC3T3-E1 was inoculated in each well of the 96 well plates at 4,000 cells/well, and then the plate was pre-cultured by using only basal mediums under the condition of 5% CO2 and 37 degree centigrade for 2 days. After that, the medium was exchanged to the medium containing 50 μg/ml of L-ascorbic acid, 10 mM β-Glycerophosphate, and fargesin, and it was incubated under the condition of 5% CO2 and 37 degree centigrade for 5 days. After the termination of the incubation, the measurement of ALP activity and the differentiated cells were observed as the same as those in Example 3.
Mineral deposition was stained by using 1% alizarin red observed as the bone calcification (Wako Pure Chemical Industries, Ltd.) according to the conventional method, and then it was observed as the bone calcification.

[2] = system: BMCs and UAMS-32 cells co-culture; assay: Differentiation of osteoblast and osteoclast in co-culture (ALP and TRAP activity); assay type: cell-based, mouse; conditions: for activity at 2 µM / activity at 6 µM / activity at 20 µM / activity at 60 µM / activity at 80 µM: Mus musculus, 120 h, 5 days co-culture, negative control = 100%
Experimental: Four-week-old ddY male mice (Japan SLC, Inc.) were killed by the cervical dislocation, and then, the long bones of left and right lower extremities were excised with muscles. All of the muscles were removed from the bones, and the femurs and shinbones were obtained. The both ends of the obtained femurs and shinbones were scraped a little by a little. The cells in the bone morrow were pushed out into the following medium by using a 2.5 ml of syringe with a needle (22G×1¼; Thermo corporation). After that, contaminants were eliminated through a filter ([…] Nylon Cell Strainer; Japan Becton, Dickinson and Company) to obtain more than 2×10^8 cells of BMCs.
Osteoblast-like cells, UAMS-32 cells, were purchased from the Institution of Physical and Chemical Research (Japan).
In order to prepare the basic medium, 10.2 g of α-MEM (powder, Life Technologies Japan Corporation (GIBCO)) was dissolved in 1 L of purified water and 2.2 g/l (w/v) of sodium bicarbonate was added. Then, it was filtered through a sterilized filter of which pore diameter was 0.22 μm (Nihon Millipore K. K). Further, the basic mediums were supplemented with 10% (v/v) fetal bovine serum (FBS) (Sigma, heat-inactivated for 30 minutes at 56° C.).
In this example, 1 μM of PGE2 and 10 nM of Vitamin D3 (both from Wako Pure Chemical Industries, Ltd.) were added to the medium to prepare a co-culture medium. By using the co-culture medium, cell suspensions of BMCs and UAMS-32 obtained as mentioned above were prepared. For the test group, 2 to 80 μM of fargesin was added, and for the negative control group, DMSO was added so as to be 0.3% of the final concentration.
BMCs were plated at the concentration of 2×10^6 cells/well, and UAMS-32 cells were plated at the concentration of 1×10^5 cells/well in each well of the 96 well plates, respectively. Then, the cells were co-cultured in the co-culture medium under the conditions of 5% CO2 and 37 degree centigrade for 5 days. The medium were changed on the 3rd days from the culture start. After cells were fixed as described in below, alkaline phosphatase (ALP) activity was measured as the index of osteoblast differentiation; tartrate-resistant acid phosphatase activity was measured as the index of osteoclast differentiation.
The cells were cultured under the above-mentioned conditions, 10% formalin aqueous solution was added into each well still standing for 10 minutes, and then ethanol was added still standing for further 1 minute to fix the cells. In order to measure TRAP activity, 10 mM sodium tartrate/50 mM citric acid buffer solution containing 1.36 mg of p-nitrophenyl sodium phosphate (Sigma-Aldrich Co. LLC.) (pH 4.6) was prepared as a substrate solution for TRAP. The substrate solution for TRAP was added to the well at the volume of 100 μl/well, and reacted for 15 to 20 minutes at a room temperature. The reaction solution was transferred into another 96 well plate, to which 100 μl/well of 0.1N NaOH was previously added to stop the reaction, and they were measured at absorbance of 405 nm.
50 mM sodium tartrate/0.1 M of sodium acetate buffer (pH 5.0) including 0.1 mg/ml naphthol AS-MX phosphate (sigma N-4875) and 0.6 mg/ml Fast red violet LB salt (both from Sigma-Aldrich Japan Co. LLC.) was prepared as TRAP staining solution. The TRAP staining solution was added to the wells to stain the cells in negative control group till they took on red color under room temperature. After that, the cells were washed with distilled water. The cells stained red and having not less than two nuclei was decided as multinuclear osteoclast, of which number was counted by using the microscope.
After the cells were cultured under the conditions, 100 μl/well of methanol cooled to −20 degree centigrade was added into the cells and stood for further 1 minute to fix the cells. […]

[3] = Cell viability, MTT test in MC3T3-E1; assay type: cell-based; conditions: mouse, MC3T3-E1 cells (osteoblast-like cell line), MC3T3-E1, negative control = 100
Experimental: MC3T3-E1 cells ((IAA) the Institution of Physical and Chemical Research), osteoblast-like cell line derived from the mouse fetus cranial bone cells, were inoculated into the 96 well plate at 4,000 cells/well. As a medium, the basal medium prepared in the Example 3 supplemented with fargesin at 2 to 80 μM was used. Pre-culture was performed by using the basal medium only under the conditions of 5% CO2 and 37 degree centigrade for 3 days. After that, the conditioned medium was changed to fresh medium with fargesin; the culture was performed under the conditions of 5% CO2 and 37 degree centigrade for 3 days. On the day 4 from the culture start, the conditioned medium was changed to the fresh medium; the culture was further performed under the conditions of 5% CO2 and 37 degree centigrade for 3 days. After the termination of the culture, the following MTT test, measurement of ALP activities, and the staining were performed.
Cell viability was measured by using MTT test. MTT reagent was prepared by dissolving 50 mg of 3-(4,5-dimethyl-thiazol-2-yl)-2,5-diphenyl tetrazolium bromide in 10 ml of PBS (−). After the termination of the culture, the medium containing fargesin was partially removed from each well to adjust the solution volume to 100 μL. Ten μl of the MTT reagent was then added to each well to be reacted to give blue-violet color in the CO2 incubator.
After the termination of the reaction, all medium was removed from each well, 100 μl of DMSO as a lysis solution was added to each well, and then the absorbance was measured at 570 nm to study the viability of live cells.

Question: Which results are given for `COc1ccc([C@@H]2OC[C@H]3[C@@H]2CO[C@@H]3c2ccc3c(c2)OCO3)cc1OC` [fargesin, Fargesin]?
Answer: Mineral deposition (calcification), alizarin red staining ([1]; 60 to 80 μM, MC3T3-E1): increased mineral deposition side; activity at 2 µM ([1]; Mus musculus, 120 h, 2 μM, MC3T3-E1 with L-ascorbic acid and β-Glycerophosphate, 5 days, negative control = 100): 93.3 ± 2.6%; activity at 6 µM ([1]; Mus musculus, 120 h, 6 μM, MC3T3-E1 with L-ascorbic acid and β-Glycerophosphate, 5 days, negative control = 100): 92.8 ± 1.6%; activity at 20 µM ([1]; Mus musculus, 120 h, 20 μM, MC3T3-E1 with L-ascorbic acid and β-Glycerophosphate, 5 days, negative control = 100): 107 ± 3.8%; activity at 60 µM ([1]; Mus musculus, 120 h, 60 μM, MC3T3-E1 with L-ascorbic acid and β-Glycerophosphate, 5 days, negative control = 100): 173 ± 13.7%; activity at 80 µM ([1]; Mus musculus, 120 h, 80 μM, MC3T3-E1 with L-ascorbic acid and β-Glycerophosphate, 5 days, negative control = 100): 172 ± 12.2%; cells differentiated to the osteoclast, ALP and TRAP double staining ([2]; 60 to 80 μM, co-culture): rarely observed; activity at 2 µM ([2]; read-out: ALP activity (%)): 113 ± 15.7%; activity at 2 µM ([2]; read-out: TRAP activity (%)): 89.5 ± 5.4%; activity at 6 µM ([2]; read-out: ALP activity (%)): 120 ± 10.1%; activity at 6 µM ([2]; read-out: TRAP activity (%)): 88.7 ± 7.2%; activity at 20 µM ([2]; read-out: ALP activity (%)): 146 ± 14.4%; activity at 20 µM ([2]; read-out: TRAP activity (%)): 74.4 ± 8.5%; activity at 60 µM ([2]; read-out: ALP activity (%)): 164 ± 14%; activity at 60 µM ([2]; read-out: TRAP activity (%)): 42.4 ± 7.1%; activity at 80 µM ([2]; read-out: ALP activity (%)): 199 ± 14.6%; activity at 80 µM ([2]; read-out: TRAP activity (%)): 35.7 ± 5.6%; viability at 6 days, 2 µM ([3]; 2 μM): 106 ± 3.2%; viability at 6 days, 6 µM ([3]; 6 μM): 105 ± 3.3%; viability at 6 days, 20 µM ([3]; 20 μM): 100 ± 3.4%; viability at 6 days, 60 µM ([3]; 60 μM): 89.1 ± 3.9%; viability at 6 days, 80 µM ([3]; 80 μM): 92.6 ± 3.7%
